Legend:
[1] = target: Cyclin-dependent kinase 8 (Homo sapiens) (UniProt P49336); conditions: Compound concentration 1000.0 nM
[2] = target: Ephrin type-B receptor 2 (Homo sapiens) (UniProt P29323); conditions: Compound concentration 1000.0 nM
[3] = target: Tyrosine-protein kinase HCK (Homo sapiens) (UniProt P08631); conditions: Compound concentration 1000.0 nM
[4] = target: Calcium/calmodulin-dependent protein kinase type 1B (Homo sapiens) (UniProt Q6P2M8); conditions: Compound concentration 1000.0 nM
[5] = target: Serine/threonine-protein kinase Nek3 (Homo sapiens) (UniProt P51956); conditions: Compound concentration 1000.0 nM
[6] = target: Calcium/calmodulin-dependent protein kinase kinase 1 (Homo sapiens) (UniProt Q8N5S9); conditions: Compound concentration 1000.0 nM
[7] = target: Testis-specific serine/threonine-protein kinase 3 (Homo sapiens) (UniProt Q96PN8); conditions: Compound concentration 1000.0 nM
[8] = target: Alpha-2A adrenergic receptor (Homo sapiens) (UniProt P08913); conditions: Compound concentration 10.0 uM
[9] = target: Mitogen-activated protein kinase 8 (Homo sapiens) (UniProt P45983); conditions: Compound concentration 1000.0 nM
[10] = target: Calcium/calmodulin-dependent protein kinase type IV (Homo sapiens) (UniProt Q16566); conditions: Compound concentration 1000.0 nM
[11] = target: MAP kinase-activated protein kinase 5 (Homo sapiens) (UniProt Q8IW41); conditions: Compound concentration 1000.0 nM
[12] = target: Non-receptor tyrosine-protein kinase TYK2 (Homo sapiens) (UniProt P29597); conditions: Compound concentration 1000.0 nM
[13] = target: T1, 5-hydroxytryptamine receptor 1A (Homo sapiens) (UniProt P08908); conditions: Compound concentration 10.0 uM
T1 sequence (whole entry): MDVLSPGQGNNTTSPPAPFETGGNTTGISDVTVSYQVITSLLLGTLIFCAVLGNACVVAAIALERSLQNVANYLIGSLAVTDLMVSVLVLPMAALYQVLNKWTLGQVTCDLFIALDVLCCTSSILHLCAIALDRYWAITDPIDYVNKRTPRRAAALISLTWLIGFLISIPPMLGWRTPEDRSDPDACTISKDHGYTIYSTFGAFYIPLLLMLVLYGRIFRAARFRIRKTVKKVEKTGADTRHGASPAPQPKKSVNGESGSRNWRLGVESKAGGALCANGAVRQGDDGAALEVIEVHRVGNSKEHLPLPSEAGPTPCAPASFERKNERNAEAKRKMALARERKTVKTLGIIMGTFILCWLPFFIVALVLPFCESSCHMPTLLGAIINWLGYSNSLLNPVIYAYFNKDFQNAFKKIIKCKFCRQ

[14] = target: Sigma non-opioid intracellular receptor 1 (Homo sapiens) (UniProt Q99720); conditions: Compound concentration 10.0 uM
[15] = system: Mast/stem cell growth factor receptor Kit (Homo sapiens), P10721 [V559D,T670I]; conditions: Compound concentration 1000.0 nM
[16] = target: Serine/threonine-protein kinase Sgk2 (Homo sapiens) (UniProt Q9HBY8); conditions: Compound concentration 1000.0 nM
[17] = target: Serine/threonine-protein kinase BRSK2 (Homo sapiens) (UniProt Q8IWQ3); conditions: Compound concentration 1000.0 nM
[18] = target: Protein kinase C iota type (Homo sapiens) (UniProt P41743); conditions: Compound concentration 1000.0 nM
[19] = target: Mitogen-activated protein kinase 10 (Homo sapiens) (UniProt P53779); conditions: Compound concentration 1000.0 nM
[20] = target: Beta-adrenergic receptor kinase 1 (Homo sapiens) (UniProt P25098); conditions: Compound concentration 1000.0 nM
[21] = target: Cyclin-dependent kinase 11B (Homo sapiens) (UniProt P21127); conditions: Compound concentration 1000.0 nM
[22] = target: Phosphatidylinositol 4-phosphate 5-kinase type-1 gamma (Homo sapiens) (UniProt O60331); conditions: Compound concentration 1000.0 nM
[23] = target: 5-hydroxytryptamine receptor 2B (Homo sapiens) (UniProt P41595); conditions: Compound concentration 10.0 uM
[24] = target: G protein-coupled receptor kinase 3 (Homo sapiens) (UniProt P35626); conditions: Compound concentration 1000.0 nM
[25] = target: Serine/threonine-protein kinase STK11 (Homo sapiens) (UniProt Q15831); conditions: Compound concentration 1000.0 nM
[26] = target: Serine/threonine-protein kinase Nek5 (Homo sapiens) (UniProt Q6P3R8); conditions: Compound concentration 1000.0 nM
[27] = system: Tyrosine-protein kinase ABL1 (Homo sapiens), P00519 [F317I]; conditions: Compound concentration 1000.0 nM
[28] = target: Myosin light chain kinase family member 4 (Homo sapiens) (UniProt Q86YV6); conditions: Compound concentration 1000.0 nM
[29] = target: Serine/threonine-protein kinase PknB (Mycobacterium tuberculosis) (UniProt P9WI81); conditions: Compound concentration 1000.0 nM
[30] = target: Macrophage colony-stimulating factor 1 receptor (Homo sapiens) (UniProt P07333); conditions: Compound concentration 1000.0 nM
[31] = system: Phosphatidylinositol 4,5-bisphosphate 3-kinase catalytic subunit alpha isoform (Homo sapiens), P42336 [E542K]; conditions: Compound concentration 1000.0 nM
[32] = target: Receptor-type tyrosine-protein kinase FLT3 (Homo sapiens) (UniProt P36888); conditions: Compound concentration 1000.0 nM
[33] = target: Serine/threonine-protein kinase DCLK3 (Homo sapiens) (UniProt Q9C098); conditions: Compound concentration 1000.0 nM
[34] = target: Mitogen-activated protein kinase kinase kinase 20 (Homo sapiens) (UniProt Q9NYL2); conditions: Compound concentration 1000.0 nM
[35] = target: Homeodomain-interacting protein kinase 2 (Homo sapiens) (UniProt Q9H2X6); conditions: Compound concentration 1000.0 nM
[36] = target: SNF-related serine/threonine-protein kinase (Homo sapiens) (UniProt Q9NRH2); conditions: Compound concentration 1000.0 nM
[37] = target: Calcium/calmodulin-dependent protein kinase type II subunit alpha (Homo sapiens) (UniProt Q9UQM7); conditions: Compound concentration 1000.0 nM
[38] = target: Serine/threonine-protein kinase SIK3 (Homo sapiens) (UniProt Q9Y2K2); conditions: Compound concentration 1000.0 nM
[39] = target: Receptor tyrosine-protein kinase erbB-4 (Homo sapiens) (UniProt Q15303); conditions: Compound concentration 1000.0 nM

G protein-coupled receptor kinase 3 (Homo sapiens), sequence (P35626 whole entry): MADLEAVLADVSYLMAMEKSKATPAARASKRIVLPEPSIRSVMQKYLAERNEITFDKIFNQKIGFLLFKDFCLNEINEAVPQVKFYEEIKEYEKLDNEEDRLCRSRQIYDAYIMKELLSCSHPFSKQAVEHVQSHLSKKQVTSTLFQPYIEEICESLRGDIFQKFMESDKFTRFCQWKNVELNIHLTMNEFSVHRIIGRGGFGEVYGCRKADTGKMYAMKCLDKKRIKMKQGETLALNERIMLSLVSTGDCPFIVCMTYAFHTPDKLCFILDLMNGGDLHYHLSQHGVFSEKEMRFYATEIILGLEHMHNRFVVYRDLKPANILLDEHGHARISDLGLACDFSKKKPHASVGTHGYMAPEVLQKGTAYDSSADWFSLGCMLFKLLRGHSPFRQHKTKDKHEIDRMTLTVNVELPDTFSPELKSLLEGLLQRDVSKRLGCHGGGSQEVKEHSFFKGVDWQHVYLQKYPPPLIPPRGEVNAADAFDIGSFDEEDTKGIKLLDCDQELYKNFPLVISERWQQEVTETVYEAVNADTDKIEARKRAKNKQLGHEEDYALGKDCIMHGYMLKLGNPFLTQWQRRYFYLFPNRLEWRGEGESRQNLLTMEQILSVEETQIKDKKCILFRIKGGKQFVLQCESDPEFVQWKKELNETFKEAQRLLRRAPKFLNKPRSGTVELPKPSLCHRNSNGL
Serine/threonine-protein kinase SIK3 (Homo sapiens), sequence (Q9Y2K2 whole entry, looked up): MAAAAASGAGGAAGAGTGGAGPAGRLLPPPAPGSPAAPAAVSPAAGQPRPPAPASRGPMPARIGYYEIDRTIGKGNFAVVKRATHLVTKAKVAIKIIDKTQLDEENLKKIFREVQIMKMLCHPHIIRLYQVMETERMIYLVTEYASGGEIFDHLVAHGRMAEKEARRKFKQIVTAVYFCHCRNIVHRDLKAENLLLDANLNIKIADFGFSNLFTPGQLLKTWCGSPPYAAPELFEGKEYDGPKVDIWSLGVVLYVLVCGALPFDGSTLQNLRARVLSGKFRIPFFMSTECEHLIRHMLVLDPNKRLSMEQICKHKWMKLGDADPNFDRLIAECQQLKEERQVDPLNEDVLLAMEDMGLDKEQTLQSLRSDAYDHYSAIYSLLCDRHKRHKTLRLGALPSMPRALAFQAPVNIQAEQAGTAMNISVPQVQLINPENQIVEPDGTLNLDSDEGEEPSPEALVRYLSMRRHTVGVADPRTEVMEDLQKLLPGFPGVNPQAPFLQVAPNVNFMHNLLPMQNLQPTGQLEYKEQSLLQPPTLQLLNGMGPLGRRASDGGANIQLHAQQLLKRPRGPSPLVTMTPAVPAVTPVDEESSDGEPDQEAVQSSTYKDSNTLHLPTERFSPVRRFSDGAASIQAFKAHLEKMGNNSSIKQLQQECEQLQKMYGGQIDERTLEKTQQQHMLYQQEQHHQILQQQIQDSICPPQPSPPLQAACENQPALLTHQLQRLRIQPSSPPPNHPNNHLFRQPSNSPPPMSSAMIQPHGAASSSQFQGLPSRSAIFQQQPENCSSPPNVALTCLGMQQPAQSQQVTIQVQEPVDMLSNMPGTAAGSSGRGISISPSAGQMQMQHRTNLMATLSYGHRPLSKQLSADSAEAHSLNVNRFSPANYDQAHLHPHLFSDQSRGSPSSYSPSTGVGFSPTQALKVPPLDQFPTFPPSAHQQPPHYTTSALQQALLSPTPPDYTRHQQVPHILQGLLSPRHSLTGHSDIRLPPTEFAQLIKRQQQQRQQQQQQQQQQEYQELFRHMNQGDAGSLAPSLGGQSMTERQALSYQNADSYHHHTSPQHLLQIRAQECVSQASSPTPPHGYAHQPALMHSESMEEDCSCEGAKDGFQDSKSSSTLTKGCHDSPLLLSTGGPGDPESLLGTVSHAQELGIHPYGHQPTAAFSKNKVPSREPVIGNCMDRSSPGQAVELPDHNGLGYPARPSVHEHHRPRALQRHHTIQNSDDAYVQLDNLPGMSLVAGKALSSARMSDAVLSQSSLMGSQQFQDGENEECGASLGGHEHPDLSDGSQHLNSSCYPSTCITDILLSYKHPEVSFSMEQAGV
Mast/stem cell growth factor receptor Kit (Homo sapiens), P10721 [V559D,T670I], sequence (P10721 whole entry V559D/T670I): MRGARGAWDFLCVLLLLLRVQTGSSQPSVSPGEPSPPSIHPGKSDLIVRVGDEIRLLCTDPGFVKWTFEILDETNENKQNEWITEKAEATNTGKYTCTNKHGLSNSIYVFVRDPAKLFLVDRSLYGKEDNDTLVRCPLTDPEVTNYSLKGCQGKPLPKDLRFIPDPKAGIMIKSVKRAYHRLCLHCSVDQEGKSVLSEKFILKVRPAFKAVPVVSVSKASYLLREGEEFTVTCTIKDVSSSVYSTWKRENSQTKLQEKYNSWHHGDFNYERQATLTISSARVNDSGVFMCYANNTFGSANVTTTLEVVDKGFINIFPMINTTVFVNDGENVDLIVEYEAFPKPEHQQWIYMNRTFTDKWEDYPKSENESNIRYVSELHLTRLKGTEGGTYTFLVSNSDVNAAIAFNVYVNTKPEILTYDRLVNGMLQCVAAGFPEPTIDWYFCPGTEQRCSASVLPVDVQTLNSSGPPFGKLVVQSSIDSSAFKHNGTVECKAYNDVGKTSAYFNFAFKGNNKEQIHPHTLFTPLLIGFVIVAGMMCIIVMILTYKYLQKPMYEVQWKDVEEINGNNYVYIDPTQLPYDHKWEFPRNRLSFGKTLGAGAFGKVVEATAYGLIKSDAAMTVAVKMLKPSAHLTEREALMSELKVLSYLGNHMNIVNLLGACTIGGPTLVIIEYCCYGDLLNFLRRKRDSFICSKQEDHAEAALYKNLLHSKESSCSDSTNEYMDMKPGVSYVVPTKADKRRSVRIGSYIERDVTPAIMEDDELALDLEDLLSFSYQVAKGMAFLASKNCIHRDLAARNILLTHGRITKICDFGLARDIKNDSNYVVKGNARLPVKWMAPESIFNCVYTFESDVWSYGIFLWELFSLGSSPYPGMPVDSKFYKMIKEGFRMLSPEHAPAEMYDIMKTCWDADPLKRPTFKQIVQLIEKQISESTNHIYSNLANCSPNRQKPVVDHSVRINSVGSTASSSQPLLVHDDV
Cyclin-dependent kinase 11B (Homo sapiens), sequence (P21127 whole entry): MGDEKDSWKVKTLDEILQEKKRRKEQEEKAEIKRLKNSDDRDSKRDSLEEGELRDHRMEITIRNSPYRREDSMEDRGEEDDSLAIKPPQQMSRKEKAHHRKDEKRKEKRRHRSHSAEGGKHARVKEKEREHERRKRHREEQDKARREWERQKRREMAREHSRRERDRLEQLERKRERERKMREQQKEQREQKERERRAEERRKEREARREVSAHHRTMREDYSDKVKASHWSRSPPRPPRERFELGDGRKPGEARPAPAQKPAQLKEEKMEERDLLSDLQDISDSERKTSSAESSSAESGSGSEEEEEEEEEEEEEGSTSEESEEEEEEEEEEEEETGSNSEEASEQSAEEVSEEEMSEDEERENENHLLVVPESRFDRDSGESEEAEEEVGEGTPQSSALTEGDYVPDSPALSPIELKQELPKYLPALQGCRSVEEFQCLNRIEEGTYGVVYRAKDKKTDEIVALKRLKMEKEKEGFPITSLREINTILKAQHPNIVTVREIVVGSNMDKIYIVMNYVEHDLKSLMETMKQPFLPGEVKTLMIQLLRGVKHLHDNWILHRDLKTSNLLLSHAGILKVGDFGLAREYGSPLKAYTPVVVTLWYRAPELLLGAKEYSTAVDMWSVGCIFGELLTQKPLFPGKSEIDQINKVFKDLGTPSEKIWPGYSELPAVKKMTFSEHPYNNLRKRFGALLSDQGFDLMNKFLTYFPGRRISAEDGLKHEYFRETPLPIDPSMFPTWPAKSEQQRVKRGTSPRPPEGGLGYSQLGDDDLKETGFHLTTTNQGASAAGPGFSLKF
SNF-related serine/threonine-protein kinase (Homo sapiens), sequence (Q9NRH2 whole entry): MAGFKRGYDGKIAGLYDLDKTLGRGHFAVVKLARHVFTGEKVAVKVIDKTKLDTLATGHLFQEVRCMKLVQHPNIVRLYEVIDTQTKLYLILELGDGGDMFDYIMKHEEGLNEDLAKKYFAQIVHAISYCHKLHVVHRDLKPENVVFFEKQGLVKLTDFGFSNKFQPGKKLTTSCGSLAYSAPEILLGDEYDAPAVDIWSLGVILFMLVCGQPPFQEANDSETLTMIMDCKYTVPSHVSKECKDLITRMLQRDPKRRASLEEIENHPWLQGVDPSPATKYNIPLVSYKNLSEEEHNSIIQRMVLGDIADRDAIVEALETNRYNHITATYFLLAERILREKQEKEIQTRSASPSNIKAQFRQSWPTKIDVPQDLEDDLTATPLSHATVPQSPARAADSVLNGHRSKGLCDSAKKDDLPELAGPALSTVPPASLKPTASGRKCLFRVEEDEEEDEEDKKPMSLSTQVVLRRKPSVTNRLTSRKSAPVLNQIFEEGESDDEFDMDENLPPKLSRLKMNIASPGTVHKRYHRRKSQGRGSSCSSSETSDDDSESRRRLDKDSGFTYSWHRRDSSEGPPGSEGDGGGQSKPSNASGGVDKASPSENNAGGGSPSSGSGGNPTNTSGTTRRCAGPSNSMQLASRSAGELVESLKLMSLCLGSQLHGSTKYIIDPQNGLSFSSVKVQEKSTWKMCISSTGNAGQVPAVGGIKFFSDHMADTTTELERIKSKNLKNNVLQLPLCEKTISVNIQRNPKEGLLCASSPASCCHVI
Mitogen-activated protein kinase 8 (Homo sapiens), sequence (P45983 whole entry): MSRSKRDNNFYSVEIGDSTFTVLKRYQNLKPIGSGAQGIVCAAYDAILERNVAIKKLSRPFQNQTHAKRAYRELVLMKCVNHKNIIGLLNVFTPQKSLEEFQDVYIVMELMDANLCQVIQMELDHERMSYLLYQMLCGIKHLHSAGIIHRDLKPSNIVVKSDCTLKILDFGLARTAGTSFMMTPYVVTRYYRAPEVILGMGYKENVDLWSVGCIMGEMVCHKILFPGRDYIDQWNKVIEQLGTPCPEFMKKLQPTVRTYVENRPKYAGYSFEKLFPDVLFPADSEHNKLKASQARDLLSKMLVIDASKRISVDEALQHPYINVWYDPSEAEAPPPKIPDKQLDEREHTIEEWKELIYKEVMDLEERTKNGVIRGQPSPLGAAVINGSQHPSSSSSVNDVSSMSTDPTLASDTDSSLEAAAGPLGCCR

Structure (SMILES)	residual activity [1]	residual activity [2]	residual activity [3]	residual activity [4]	residual activity [5]	residual activity [6]	residual activity [7]	inhibition [8]	residual activity [9]	residual activity [10]	residual activity [11]	residual activity [12]	inhibition [13]	inhibition [14]	residual activity [15]	residual activity [16]	residual activity [17]	residual activity [18]	residual activity [19]	residual activity [20]	other results
O=C(O)[C@@H]1[C@@H](Cn2nnc3ccccc3c2=O)CC[C@H]1C(=O)c1ccc(OCCC2CCOCC2)cc1 [BAY-694]	91%	100%	100%	67%	83%	100%	100%	5.09%	100%	75%	76%	100%	7.62%	29.3%	98%	79%	100%	100%	100%	78%	residual activity [21]: 99%; residual activity [22]: 100%; inhibition [23]: 36.2%; residual activity [24]: 100%; residual activity [25]: 94%; residual activity [26]: 100%; residual activity [27]: 100%; residual activity [28]: 100%; residual activity [29]: 94%; residual activity [30]: 100%; residual activity [31]: 62%; residual activity [32]: 100%; residual activity [33]: 100%; residual activity [34]: 91%; residual activity [35]: 100%; residual activity [36]: 100%; residual activity [37]: 100%; residual activity [38]: 84%; residual activity [39]: 100%
O=C(O)[C@H]1[C@H](Cn2nnc3ccccc3c2=O)CC[C@@H]1C(=O)c1ccc(OCCC2CCOCC2)cc1 [BAY-7598]	100%	100%	70%	46%	86%	81%	85%	-5.14%	72%	78%	99%	100%	-0.18%	6.09%	69%	92%	100%	66%	83%	61%	residual activity [21]: 88%; residual activity [22]: 100%; inhibition [23]: 22.8%; residual activity [24]: 100%; residual activity [25]: 76%; residual activity [26]: 97%; residual activity [27]: 100%; residual activity [28]: 100%; residual activity [29]: 77%; residual activity [30]: 81%; residual activity [31]: 71%; residual activity [32]: 99%; residual activity [33]: 98%; residual activity [34]: 100%; residual activity [35]: 100%; residual activity [36]: 95%; residual activity [37]: 100%; residual activity [38]: 61%; residual activity [39]: 89%
